Measured values: publication PMC5707067, “Farnesyl phenolic enantiomers as natural MTH1 inhibitors from Ganoderma sinense” (Oncotarget, 2017)

Experiments:
[1] = tested on: human colorectal carcinoma cells (SW620); experiment: CCK8 cytotoxicity assay, SW620; format: cell-based; conditions: Homo sapiens, SW-620; CCK8, 48 h, carcinoma cell line
Description: (§1) The growth inhibitory effects of the isolated farnesyl phenolic compounds (1–8) against carcinoma cell lines [human osteosarcoma cells (U2OS), human colorectal carcinoma cells (SW620), human ES-2 ovarian carcinoma cells (ES-2)] and normal tissue cell lines [human hepatic cells (Lo2), African green monkey kidney vero cells (Vero)] were further investigated using CCK8 assay method (Table 3).
(§2) Carcinoma cell lines [human osteosarcoma cells (U2OS), human colorectal carcinoma cells (SW620), human ES-2 ovarian carcinoma cells (ES-2)] and normal tissue cell lines [human hepatic cells (Lo2), African green monkey kidney Vero cells (Vero)] The U2OS, SW620, ES-2, Lo2 and Vero were obtained from ATCC (Manassas, VA, USA). The SW620 and Vero cells were cultured in Roswell Park Memorial Institute medium (RPMI), with 10% fetal bovine serum (Hyclone) and 1% penicillin-streptomycin (Sigma). Lo2, U2OS and ES-2 cells were grown in Dulbecco's modified eagle medium (DMEM), with 10% fetal bovine serum (Hyclone) and 1% penicillin-streptomycin (Sigma). All of these cells were cultured at 37°C in a humidified atmosphere with 5% CO2. For CCK8 assay cytotoxicity evaluation of compounds, all cells were separately plated at a density of 1 × 10^4 cells/well in a 96 well plate. Cells were cultivated at 37°C in 5% CO2 atmosphere for 24 h, then medium in the wells was replaced with fresh medium containing compounds which were diluted in 8 dilution steps covering the range from 200 μM to 1.5625 μM. And DMSO was used as negative control. After 48 h incubation, 10 μL of CCK8 solution was added to each well. After 30 min, the optical density (OD) of each well was measured at wavelength of 450 nm on spectrophotometer. Data were corrected for background (no-cell control) and expressed as a percentage of the value for untreated cells. The IC50 values of the isolated compounds were derived from the mean OD values of the triplicate tests versus the drug concentration curves.

[2] = CCK8 cytotoxicity assay, Vero; format: cell-based, African green monkey; conditions: African green monkey, Vero kidney cells (normal tissue cell line), CCK8, 48 h
Description: as §1, §2

[3] = tested on: SW620 cells; experiment: EdU cell proliferation assay; format: cell-based, human; conditions: 50 μM or 150 μM vs control, P<0.001
Experimental: EdU cell proliferation assays were carried out to detect the effects of compounds on DNA replication. EdU (5-Ethynyl-2- deoxyuridine), a thymidine analog, can penetrate into the replicating DNA molecule. Based on the specific response of EdU and fluorescent dyes, DNA replication activity could be detected.
SW620 cells were pretreated with 0, 50, 150 μM of compound 1, respectively. Dissociated cells were handled with EdU cell proliferation kit (RiboBio) according to the manuscript by according to the manufacturer's instructions. Then the morphology was observed by fluorescence microscopy (Zeiss, OBSERVER D1/AX10 cam HRC).

[4] = tested on: SW620 cells (53BP1 foci); experiment: 53BP1 foci immunofluorescence; format: cell-based, human; conditions: 50 μM, 24 h vs control, P<0.01
Experimental: Meanwhile, MTH1 could prevent the mispairing of bases during replication and transversion mutations. Presumably, its inhibitors could cause DNA damage. P53 binding protein 1 (p53-binding, protein 1, 53BP1) is an important regulatory factor in response to double strand breaks.
Cells which adhered to glass coverslips were treated with DMSO or compounds (50 μM) for 24 h. Then cells were washed with PBS and then fixed with 3% paraformaldehyde in PBS for 20 min […]. Fixed cells were rinsed with PBS and incubated with penetrating agent (0.5% Triton-X-100) in PBS for 5 min. Next, cells were stained with an anti-53BP1 monoclonal antibody (abcam, diluted 1:250). Then the coverslips were rinsed with PBS at least 3 times andincubated with an Alexa Fluor 568 goat anti-rabbit IgG secondary antibody. After PBS rinsing, coverslips were stained with DAPI (sigma). Then the morphology was observed by confocal microscopy (Zeiss, OBSERVER D1/AX10 cam HRC).

[5] = target: T1, MTH1 in SW620 cells (Homo sapiens, UniProt P36639); experiment: Cellular thermal shift assay (CETSA); format: cell-based; conditions: 30 μM, 12 hours, 44-54°C, vs DMSO, Western blot
T1 construct: endogenous in cells; host or cells: SW620
Experimental: The cellular thermal shift assay (CETSA) was recently developed to further confirm the interaction between the target and the compound in vitro by Western blot assay. CETSA was applied based on the principles that the ligand binding gave rise to the thermal stabilization of target proteins. The thermal stability of MTH1 in SW620 cells was tested at the temperature range of 44-54°C after the pretreatment of compound 1 for 12 hours (Figure 6E and 6F). Correspondingly, the control cells were treated with DMSO. […] Compared with the control group, the thermal stability of MTH1 protein in compound 1 pretreated cells was better under the same temperature condition.
CETSA was developed as a method to directly detect the binding capacity of compounds with targets at the cellular level, based on the principle of ligand-induced target protein stabilization. […] Subsequently, cells were analysed by Western blot assay.
The harvested cells were lysed with liquid nitrogen and the freeze-thaw cycles were repeated twice. […] Proteins was quantified by Bradford reagent (Bio-Rad, USA). The same amount of proteins (20-40 μg) were loaded onto 15% SDS-PAGE gels and transferred to polyvinylidene difluoride membranes (PVDF) (Millipore, USA) and analyzed using the MTH1-antibody (Proteintech) at a concentration of 1: 500. […]

[6] = target: MTH1 (Homo sapiens, UniProt P36639); experiment: Enzyme inhibition assay (8-oxo-dGTP hydrolysis, HPLC); format: biochemical; parameters: hexa-histidine (His6) (N, cleaved yes); made in house; host or cells: E. coli BL21 Star; conditions: 8-oxo-dGTP 25 μM, purified MTH1
Experimental: Microscale thermophoresis method (MST) was employed to assay the binding affinity between the compounds and MTH1. This technology can quantify protein-protein interactions or protein-small molecule interactions with high sensitivity through detecting fluorescent changes of molecules during thermophoresis.
To identify the efficacy of the eight compounds, an enzyme inhibition assay was carried out. […] Then the reaction was stop by the addition of 20 μL ice-cold Na2EDTA (50 mM). The reaction mixture was centrifugated at 15000 rpm at 4°C for 10 min. 20 μL of supernatant was injected on an HPLC column (Ultimate AQ-C18 RP-18e, 250 mm × 4.6 mm × 5 μm), and eluted isolate with 100 mM Na2HPO4-NaOH (pH 5.5)/MeOH 95:5 with flow rate 1 mL/min at column room of 30°C. […] Measurements were done in triplet, and IC50 values were calculated to compare the efficiency of various compounds.

For `CO[C@]1(c2cc(O)cc(O)c2)C=C(CCCC(CO)CC/C=C(\C)COC(=O)/C=C/c2ccc(O)cc2)C(=O)O1` (stereo partly drawn) [Compound 1, (5R)-3-{9-[(E)-coumaroyl]-4-hydroxymethyl-8-methyl-7-nonene}-5-(3,5-dihydroxyphenyl)-5-methoxy-2(5H)-furanone], the IC50 [1] was 45 ± 1.23 µM, the IC50 at 48 h [2] was over 300 µM and the “percentage of EdU+ cells” value [3] was “significantly deceased”. The 53BP1 foci formation [4] was “significantly aggregated”, the “thermal stability of MTH1 protein” value [5] was “better” and the IC50 [6] was 10.9 ± 1.04 µM.
